Results published in ChEMBL document CHEMBL4265887 (Bioorg Med Chem Lett, 2018).
Values after ≈ are worked out from the molar mass of the structure shown. Active and inactive are the calls of the source. The calls are words filed in the database; no cut-off is given here.

Legend:
[1] = test system: HCT-116; experiment: Cytotoxicity against human HCT116 cells assessed as reduction in cell viability after 48 hrs by MTT assay; format: functional, cell-based; conditions: HCT-116, 48 h
[2] = test system: HCT-15; experiment: Cytotoxicity against human HCT15 cells assessed as reduction in cell viability after 48 hrs by MTT assay; format: functional, cell-based; conditions: HCT-15, 48 h
[3] = target: T1, Aurora kinase A (Homo sapiens, UniProt O14965); experiment: Inhibition of recombinant Aurora A (unknown origin) using TAMRA-PKAtide as substrate after 30 mins by fluorescence polarization assay
T1 sequence (O14965 whole entry): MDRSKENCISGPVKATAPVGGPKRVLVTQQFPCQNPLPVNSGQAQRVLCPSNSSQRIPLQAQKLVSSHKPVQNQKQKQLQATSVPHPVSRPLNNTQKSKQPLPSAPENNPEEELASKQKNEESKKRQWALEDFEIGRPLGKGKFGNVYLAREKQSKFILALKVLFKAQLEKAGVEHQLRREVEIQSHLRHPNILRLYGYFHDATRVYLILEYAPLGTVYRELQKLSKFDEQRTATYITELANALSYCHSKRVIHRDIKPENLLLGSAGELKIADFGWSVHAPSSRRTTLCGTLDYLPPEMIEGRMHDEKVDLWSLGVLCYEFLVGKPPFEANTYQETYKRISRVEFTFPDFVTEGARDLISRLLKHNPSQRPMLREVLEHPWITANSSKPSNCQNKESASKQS

[4] = target: T2, Aurora kinase B (Homo sapiens, UniProt Q96GD4); experiment: Inhibition of recombinant Aurora B (unknown origin) using TAMRA-PKAtide as substrate after 1 hr by fluorescence polarization assay
T2 sequence (Q96GD4 whole entry): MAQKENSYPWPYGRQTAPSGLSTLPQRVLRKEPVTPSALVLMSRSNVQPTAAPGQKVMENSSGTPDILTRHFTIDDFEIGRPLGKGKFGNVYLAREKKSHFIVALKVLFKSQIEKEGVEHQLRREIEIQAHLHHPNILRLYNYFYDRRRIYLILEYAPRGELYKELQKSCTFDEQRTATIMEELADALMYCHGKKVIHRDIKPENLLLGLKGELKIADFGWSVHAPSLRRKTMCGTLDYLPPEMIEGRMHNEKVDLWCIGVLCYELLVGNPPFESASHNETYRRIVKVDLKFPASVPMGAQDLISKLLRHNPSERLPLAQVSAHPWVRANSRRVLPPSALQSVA

[5] = test system: HCT-116; experiment: Induction of apoptosis in human HCT116 cells at 100 nM after 72 hrs by Annexin V-FITC staining-based flow cytometric analysis; format: functional, cell-based
[6] = test system: HCT-116; experiment: Inhibition of cytokinesis in human HCT116 cells at 100 nM after 24 hrs by propidium iodide/RNase staining-based flow cytometric analysis; format: functional, cell-based
[7] = test system: HCT-116; experiment: Induction of apoptosis in human HCT116 cells at 1 uM after 72 hrs by Annexin V-FITC/propidium iodide staining-based flow cytometric analysis; format: functional, cell-based
[8] = test system: HCT-116; experiment: Inhibition of cytokinesis in human HCT116 cells at 1 uM after 24 hrs by propidium iodide/RNase staining-based flow cytometric analysis; format: functional, cell-based
[9] = target: T2, Aurora kinase B; experiment: Inhibition of Aurora B phosphorylation at Thr232 residue in human HCT116 cells over 100 nM after 3 hrs by Western blot method; format: cell-based
[10] = Solubility of the compound in phosphate buffer of pH 7.4 after 24 hrs by RP-HPLC analysis; format: physicochemical; conditions: phosphate buffer, pH 7.4
[11] = Solubility of the compound in phosphate buffer of pH 2 after 24 hrs by RP-HPLC analysis; format: physicochemical
[12] = target: Tyrosine-protein kinase receptor UFO (Homo sapiens) (UniProt P30530); experiment: Inhibition of AXL (unknown origin) at 1 uM
[13] = target: Vascular endothelial growth factor receptor 2 (Homo sapiens) (UniProt P35968); experiment: Inhibition of VEGFR2 (unknown origin) at 1 uM
[14] = target: Proto-oncogene tyrosine-protein kinase Src (Homo sapiens) (UniProt P12931); experiment: Inhibition of c-Src (unknown origin) at 1 uM
[15] = target: Tyrosine-protein kinase ABL1 (Homo sapiens) (UniProt P00519); experiment: Inhibition of ABL (unknown origin) at 1 uM
Chain of Tyrosine-protein kinase ABL1 (Homo sapiens) (P00519 whole entry): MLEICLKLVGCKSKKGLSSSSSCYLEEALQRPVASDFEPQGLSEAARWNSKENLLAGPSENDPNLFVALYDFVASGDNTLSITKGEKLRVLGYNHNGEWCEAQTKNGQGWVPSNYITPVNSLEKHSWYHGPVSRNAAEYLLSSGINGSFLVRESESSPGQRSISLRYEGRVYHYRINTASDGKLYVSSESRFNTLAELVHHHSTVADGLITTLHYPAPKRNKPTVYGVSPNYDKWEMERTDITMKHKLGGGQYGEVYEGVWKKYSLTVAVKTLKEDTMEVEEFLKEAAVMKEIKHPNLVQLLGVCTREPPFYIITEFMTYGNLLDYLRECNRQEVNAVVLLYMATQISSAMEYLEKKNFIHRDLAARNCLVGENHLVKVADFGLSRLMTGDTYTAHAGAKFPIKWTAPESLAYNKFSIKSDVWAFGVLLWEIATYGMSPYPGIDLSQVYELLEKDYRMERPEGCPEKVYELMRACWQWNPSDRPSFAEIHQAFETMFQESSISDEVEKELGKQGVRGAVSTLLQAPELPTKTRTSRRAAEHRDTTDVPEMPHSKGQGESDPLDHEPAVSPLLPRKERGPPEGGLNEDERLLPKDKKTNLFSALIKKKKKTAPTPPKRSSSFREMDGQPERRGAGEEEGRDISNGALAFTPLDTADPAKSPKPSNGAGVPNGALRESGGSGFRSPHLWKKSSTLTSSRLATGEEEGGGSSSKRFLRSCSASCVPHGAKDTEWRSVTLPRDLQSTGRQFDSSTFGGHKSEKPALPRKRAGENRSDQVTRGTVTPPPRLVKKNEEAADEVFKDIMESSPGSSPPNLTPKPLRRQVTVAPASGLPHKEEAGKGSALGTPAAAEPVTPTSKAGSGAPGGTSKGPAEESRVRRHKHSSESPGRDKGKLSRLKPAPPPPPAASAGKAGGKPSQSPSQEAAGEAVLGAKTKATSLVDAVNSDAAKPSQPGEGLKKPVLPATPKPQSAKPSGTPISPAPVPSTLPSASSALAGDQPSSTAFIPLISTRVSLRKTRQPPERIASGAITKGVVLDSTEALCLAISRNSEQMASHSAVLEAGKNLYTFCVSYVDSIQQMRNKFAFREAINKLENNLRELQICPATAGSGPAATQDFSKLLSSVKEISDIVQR

[16] = target: Tyrosine-protein kinase JAK3 (Homo sapiens) (UniProt P52333); experiment: Inhibition of JAK3 (unknown origin) at 1 uM
Chain of Tyrosine-protein kinase JAK3 (Homo sapiens) (P52333 whole entry): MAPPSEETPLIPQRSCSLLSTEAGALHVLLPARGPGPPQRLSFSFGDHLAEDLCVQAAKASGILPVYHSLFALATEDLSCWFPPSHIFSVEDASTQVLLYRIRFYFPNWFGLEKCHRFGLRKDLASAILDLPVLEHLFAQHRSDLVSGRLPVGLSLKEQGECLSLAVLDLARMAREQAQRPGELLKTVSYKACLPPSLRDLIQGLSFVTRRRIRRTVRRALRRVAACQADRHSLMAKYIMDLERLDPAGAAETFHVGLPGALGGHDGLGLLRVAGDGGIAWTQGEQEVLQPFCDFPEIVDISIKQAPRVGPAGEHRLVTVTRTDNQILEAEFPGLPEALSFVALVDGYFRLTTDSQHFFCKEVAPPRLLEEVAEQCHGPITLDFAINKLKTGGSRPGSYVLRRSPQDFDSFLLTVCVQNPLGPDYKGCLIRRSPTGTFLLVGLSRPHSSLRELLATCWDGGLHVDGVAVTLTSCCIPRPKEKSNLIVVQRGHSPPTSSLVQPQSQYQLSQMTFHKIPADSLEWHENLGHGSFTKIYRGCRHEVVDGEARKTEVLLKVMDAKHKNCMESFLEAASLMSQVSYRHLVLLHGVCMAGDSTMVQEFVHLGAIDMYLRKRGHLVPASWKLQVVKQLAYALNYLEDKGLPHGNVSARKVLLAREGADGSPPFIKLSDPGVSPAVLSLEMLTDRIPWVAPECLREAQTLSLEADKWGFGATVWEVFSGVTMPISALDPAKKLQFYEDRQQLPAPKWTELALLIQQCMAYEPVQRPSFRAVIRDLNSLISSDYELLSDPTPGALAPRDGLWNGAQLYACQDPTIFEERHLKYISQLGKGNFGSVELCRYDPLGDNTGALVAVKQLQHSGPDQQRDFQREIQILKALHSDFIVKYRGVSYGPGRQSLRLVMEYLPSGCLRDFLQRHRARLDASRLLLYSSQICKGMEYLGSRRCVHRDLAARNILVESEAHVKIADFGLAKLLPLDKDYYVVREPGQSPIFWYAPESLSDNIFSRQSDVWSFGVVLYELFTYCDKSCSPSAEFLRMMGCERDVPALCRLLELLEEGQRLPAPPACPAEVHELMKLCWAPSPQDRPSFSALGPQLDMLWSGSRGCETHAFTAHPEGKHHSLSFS

[17] = target: Proto-oncogene tyrosine-protein kinase receptor Ret (Homo sapiens) (UniProt P07949); experiment: Inhibition of RET (unknown origin) at 1 uM
Chain of Proto-oncogene tyrosine-protein kinase receptor Ret (Homo sapiens) (P07949 whole entry): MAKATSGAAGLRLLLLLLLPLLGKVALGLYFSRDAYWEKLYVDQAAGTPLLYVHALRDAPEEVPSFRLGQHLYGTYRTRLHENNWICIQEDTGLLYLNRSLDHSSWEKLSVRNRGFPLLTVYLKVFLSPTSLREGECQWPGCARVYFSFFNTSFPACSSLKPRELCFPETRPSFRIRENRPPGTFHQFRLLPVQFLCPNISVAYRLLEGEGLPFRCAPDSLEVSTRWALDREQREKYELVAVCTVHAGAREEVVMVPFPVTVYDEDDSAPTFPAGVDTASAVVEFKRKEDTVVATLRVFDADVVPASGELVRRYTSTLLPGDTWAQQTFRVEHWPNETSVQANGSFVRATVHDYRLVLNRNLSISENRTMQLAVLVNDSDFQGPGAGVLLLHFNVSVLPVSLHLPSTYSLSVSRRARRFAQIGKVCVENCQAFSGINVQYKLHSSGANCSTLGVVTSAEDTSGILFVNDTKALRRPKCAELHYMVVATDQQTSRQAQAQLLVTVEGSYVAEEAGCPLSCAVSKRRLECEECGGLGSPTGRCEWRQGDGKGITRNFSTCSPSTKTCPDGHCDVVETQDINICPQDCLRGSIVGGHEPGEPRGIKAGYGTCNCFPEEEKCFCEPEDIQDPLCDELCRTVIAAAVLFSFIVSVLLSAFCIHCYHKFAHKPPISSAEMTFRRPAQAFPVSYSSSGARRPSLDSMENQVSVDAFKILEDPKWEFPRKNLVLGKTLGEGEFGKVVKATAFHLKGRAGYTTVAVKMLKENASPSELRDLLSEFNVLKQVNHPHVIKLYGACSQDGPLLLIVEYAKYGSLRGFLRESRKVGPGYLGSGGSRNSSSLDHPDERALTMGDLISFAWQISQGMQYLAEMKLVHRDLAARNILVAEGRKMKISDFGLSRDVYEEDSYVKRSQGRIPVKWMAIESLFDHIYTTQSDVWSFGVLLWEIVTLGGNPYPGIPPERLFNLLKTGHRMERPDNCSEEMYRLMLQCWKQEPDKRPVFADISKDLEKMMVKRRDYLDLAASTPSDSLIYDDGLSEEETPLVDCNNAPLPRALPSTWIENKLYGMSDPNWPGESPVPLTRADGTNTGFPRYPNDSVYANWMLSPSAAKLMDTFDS

[18] = target: Serine/threonine-protein kinase PAK 4 (Homo sapiens) (UniProt O96013); experiment: Inhibition of PAK4 (unknown origin) at 1 uM
[19] = target: High affinity nerve growth factor receptor (Homo sapiens) (UniProt P04629); experiment: Inhibition of TrkA (unknown origin) at 1 uM
[20] = target: Platelet-derived growth factor receptor beta (Homo sapiens) (UniProt P09619); experiment: Inhibition of PDGFRbeta (unknown origin) at 1 uM
[21] = target: Epithelial discoidin domain-containing receptor 1 (Homo sapiens) (UniProt Q08345); experiment: Inhibition of DDR1 (unknown origin) at 1 uM
[22] = target: Fibroblast growth factor receptor 3 (Homo sapiens) (UniProt P22607); experiment: Inhibition of FGFR3 (unknown origin) at 1 uM
[23] = target: Mast/stem cell growth factor receptor Kit (Homo sapiens) (UniProt P10721); experiment: Inhibition of c-KIT (unknown origin) at 1 uM
[24] = target: Serine/threonine-protein kinase Chk1 (Homo sapiens) (UniProt O14757); experiment: Inhibition of CHK1 (unknown origin) at 1 uM
[25] = target: Receptor-type tyrosine-protein kinase FLT3 (Homo sapiens) (UniProt P36888); experiment: Inhibition of FLT3 (unknown origin) at 1 uM
[26] = target: Serine/threonine-protein kinase B-raf (Homo sapiens) (UniProt P15056); experiment: Inhibition of BRAF (unknown origin) at 1 uM
[27] = target: Hepatocyte growth factor receptor (Homo sapiens) (UniProt P08581); experiment: Inhibition of c-MET (unknown origin) at 1 uM
[28] = target: Cyclin-dependent kinase 4/cyclin D1 (Homo sapiens) (UniProt P11802+P24385); experiment: Inhibition of CDK4/Cyclin D1 (unknown origin) at 1 uM; format: protein-complex assay
[29] = target: Angiopoietin-1 receptor (Homo sapiens) (UniProt Q02763); experiment: Inhibition of TIE2 (unknown origin) at 1 uM
[30] = target: Serine/threonine-protein kinase pim-1 (Homo sapiens) (UniProt P11309); experiment: Inhibition of PIM1 (unknown origin) at 1 uM
Chain of Serine/threonine-protein kinase pim-1 (Homo sapiens) (P11309 whole entry, looked up): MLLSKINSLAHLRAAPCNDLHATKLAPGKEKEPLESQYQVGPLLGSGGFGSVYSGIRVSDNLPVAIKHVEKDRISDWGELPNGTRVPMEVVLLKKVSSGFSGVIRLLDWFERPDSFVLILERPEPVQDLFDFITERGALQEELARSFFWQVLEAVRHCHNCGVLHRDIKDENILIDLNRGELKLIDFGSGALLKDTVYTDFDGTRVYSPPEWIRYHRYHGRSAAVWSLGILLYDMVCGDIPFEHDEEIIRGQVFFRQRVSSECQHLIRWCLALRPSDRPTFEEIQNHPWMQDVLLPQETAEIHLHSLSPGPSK

[31] = target: CDK2/Cyclin A2 (Homo sapiens) (UniProt P24941+P20248); experiment: Inhibition of CDK2/cyclin A (unknown origin) at 1 uM; format: protein-complex assay
[32] = target: Insulin receptor (Homo sapiens) (UniProt P06213); experiment: Inhibition of INSR (unknown origin) at 1 uM
[33] = target: Serine/threonine-protein kinase PAK 1 (Homo sapiens) (UniProt Q13153); experiment: Inhibition of PAK1 (unknown origin) at 1 uM
[34] = target: Protein kinase C alpha type (Homo sapiens) (UniProt P17252); experiment: Inhibition of PKCalpha (unknown origin) at 1 uM
[35] = target: Tyrosine-protein kinase CSK (Homo sapiens) (UniProt P41240); experiment: Inhibition of CSK (unknown origin) at 1 uM
[36] = target: Tyrosine-protein kinase SYK (Homo sapiens) (UniProt P43405); experiment: Inhibition of SYK (unknown origin) at 1 uM
[37] = target: Inhibitor of nuclear factor kappa-B kinase subunit beta (Homo sapiens) (UniProt O14920); experiment: Inhibition of IKKbeta (unknown origin) at 1 uM
[38] = target: Interleukin-1 receptor-associated kinase 4 (Homo sapiens) (UniProt Q9NWZ3); experiment: Inhibition of IRAK4 (unknown origin) at 1 uM
Chain of Interleukin-1 receptor-associated kinase 4 (Homo sapiens) (Q9NWZ3 whole entry): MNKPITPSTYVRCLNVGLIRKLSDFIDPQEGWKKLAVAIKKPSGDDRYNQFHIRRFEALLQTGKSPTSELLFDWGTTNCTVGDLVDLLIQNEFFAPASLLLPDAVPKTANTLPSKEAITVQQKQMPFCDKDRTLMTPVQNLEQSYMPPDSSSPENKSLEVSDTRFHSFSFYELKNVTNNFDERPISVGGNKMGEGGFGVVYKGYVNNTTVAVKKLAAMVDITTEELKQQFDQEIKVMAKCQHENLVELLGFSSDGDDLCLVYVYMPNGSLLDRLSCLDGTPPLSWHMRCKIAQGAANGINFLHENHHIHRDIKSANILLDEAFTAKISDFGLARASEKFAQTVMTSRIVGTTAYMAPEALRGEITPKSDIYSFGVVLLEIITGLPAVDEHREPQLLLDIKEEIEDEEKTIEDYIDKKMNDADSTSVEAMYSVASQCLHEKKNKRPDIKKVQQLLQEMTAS

[39] = target: Death-associated protein kinase 3 (Homo sapiens) (UniProt O43293); experiment: Inhibition of ZIPK (unknown origin) at 1 uM
[40] = target: Mitogen-activated protein kinase 3 (Homo sapiens) (UniProt P27361); experiment: Inhibition of ERK1 (unknown origin) at 1 uM
Chain of Mitogen-activated protein kinase 3 (Homo sapiens) (P27361 whole entry): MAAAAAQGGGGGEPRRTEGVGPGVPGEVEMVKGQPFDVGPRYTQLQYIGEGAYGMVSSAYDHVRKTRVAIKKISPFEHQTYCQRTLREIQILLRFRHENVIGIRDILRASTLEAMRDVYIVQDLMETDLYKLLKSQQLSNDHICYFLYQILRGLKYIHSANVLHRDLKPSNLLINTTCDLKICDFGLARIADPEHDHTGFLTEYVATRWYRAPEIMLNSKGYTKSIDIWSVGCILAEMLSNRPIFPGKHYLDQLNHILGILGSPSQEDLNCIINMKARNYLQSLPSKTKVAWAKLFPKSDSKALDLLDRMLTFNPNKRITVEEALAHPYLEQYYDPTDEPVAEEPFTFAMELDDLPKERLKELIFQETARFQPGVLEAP

[41] = target: Rho-associated protein kinase 2 (Homo sapiens) (UniProt O75116); experiment: Inhibition of ROCK2 (unknown origin) at 1 uM
[42] = target: Serine/threonine-protein kinase mTOR (Homo sapiens) (UniProt P42345); experiment: Inhibition of mTOR (unknown origin) at 1 uM

**Q.** With `CNC(=O)Nc1sc2c(C(C)C)cc(NS(=O)(=O)N(C)C)cc2c1C(N)=O` as the compound, how does the IC50 [1] read?
**A.** Its IC50 is 300 nM.

**Q.** And the IC50 [2]?
**A.** The IC50 was 1600 nM.

**Q.** What about the IC50 [3] of the same compound?
**A.** The IC50 was 9 nM.

**Q.** And the IC50 [4]?
**A.** Its IC50 is 23 nM.

**Q.** What about the Activity [5] of the same compound?
**A.** Its Activity is “inactive”.

**Q.** And the “Cytokinesis inhibition (active/inactive call)” value [6]?
**A.** Its value is “Active”.

**Q.** And the Activity [7]?
**A.** The Activity was “inactive”.

**Q.** What about the “Cytokinesis inhibition (active/inactive call)” value [8] of the same compound?
**A.** The value was “Active”.

**Q.** What about the inhibition [9] of the same compound?
**A.** Its inhibition is “Active”.

**Q.** What about the solubility at 24 h [10] of the same compound?
**A.** The solubility at 24 h was 13.1 µM (≈ 5.42 µg/mL).

**Q.** What about the solubility at 24 h [11] of the same compound?
**A.** Its solubility at 24 h is 8 µM (≈ 3.31 µg/mL).

**Q.** What about the inhibition [12] of the same compound?
**A.** The inhibition was 37.2%.

**Q.** And the inhibition [13]?
**A.** The inhibition was 68.2%.

**Q.** And the inhibition [14]?
**A.** The inhibition was 94.4%.

**Q.** And the inhibition [15]?
**A.** The inhibition was 88.8%.

**Q.** And the inhibition [16]?
**A.** Its inhibition is 54.6%.

**Q.** And the inhibition [17]?
**A.** The inhibition was 97.2%.

**Q.** What about the inhibition [18] of the same compound?
**A.** Its inhibition is 11.2%.

**Q.** And the inhibition [19]?
**A.** Its inhibition is 46.9%.

**Q.** And the inhibition [20]?
**A.** Its inhibition is 61.3%.

**Q.** And the inhibition [21]?
**A.** Its inhibition is 75.9%.

**Q.** And the inhibition [22]?
**A.** Its inhibition is 14.4%.

**Q.** What about the inhibition [23] of the same compound?
**A.** The inhibition was 28.9%.

**Q.** And the inhibition [24]?
**A.** The inhibition was 16.4%.

**Q.** What about the inhibition [25] of the same compound?
**A.** The inhibition was 46.6%.

**Q.** What about the inhibition [26] of the same compound?
**A.** Its inhibition is -0.3%.

**Q.** And the inhibition [27]?
**A.** Its inhibition is 2.76%.

**Q.** And the inhibition [28]?
**A.** The inhibition was 27%.

**Q.** And the inhibition [29]?
**A.** The inhibition was 0.75%.

**Q.** And the inhibition [30]?
**A.** The inhibition was 41.6%.

**Q.** And the inhibition [31]?
**A.** Its inhibition is 22.8%.

**Q.** And the inhibition [32]?
**A.** Its inhibition is 3%.

**Q.** What about the inhibition [33] of the same compound?
**A.** Its inhibition is 5.28%.

**Q.** What about the inhibition [34] of the same compound?
**A.** Its inhibition is 17.9%.

**Q.** And the inhibition [35]?
**A.** The inhibition was 19.5%.

**Q.** What about the inhibition [36] of the same compound?
**A.** Its inhibition is 51.1%.

**Q.** What about the inhibition [37] of the same compound?
**A.** The inhibition was 30.7%.

**Q.** And the inhibition [38]?
**A.** Its inhibition is 8.14%.

**Q.** And the inhibition [39]?
**A.** Its inhibition is 39.6%.

**Q.** What about the inhibition [40] of the same compound?
**A.** Its inhibition is 17.6%.

**Q.** And the inhibition [41]?
**A.** Its inhibition is 15.7%.

**Q.** What about the inhibition [42] of the same compound?
**A.** The inhibition was 3.66%.
